Assay results: patent US8663660B2, “Polymerized micelles” (Les Laboratories Servier, priority 2008, dated 2014)
Converted amounts (≈) assume the structure as drawn.

Legend:
[1] = Critical micellar concentration; format: physicochemical
Protocol: “Self-assembly” of amphiphilic molecules is understood to be the spontaneous organisation, into spherical micelles, of amphiphilic molecules in aqueous media at a concentration greater than the critical micellar concentration or CMC.
The critical micellar concentration of the amphiphilic molecule II-4 as described hereinbefore was determined in experiments to be 0.082 mg/ml.

[2] = physchem; conditions: for Molar level of inclusion: polymerised micelles at 10 mg/ml, 50° C. 12 hours, molar ratio medicament/(medicament + amphiphilic II-4) × 100; for Level of inclusion by weight: polymerised micelles of amphiphilic II-4 at 10 mg/ml, stirring at 50° C. for 12 hours, weight ratio medicament/(medicament + transporter) × 100; for Number of molecules per micelle: polymerised micelles, molar ratio medicament/amphiphilic II-4 × 100 amphiphilics per micelle
Protocol: At the end of the inclusion sequence, the solution is filtered in order to remove the excess of non-included active ingredient.
The level of inclusion of S39625 is determined by the reverse-phase HPLC method. This technique is based on the difference in the interaction of molecules between the mobile phase and the stationary phase. This difference affects the retention times for those molecules. For given HPLC conditions, the same molecule always has the same retention time. The reverse-phase HPLC conditions for determination of the level of inclusion of S39625 are an RP-18^c grafted silica column for the stationary phase and a gradient of water and of acetonitrile from 5% to 100% for the mobile phase. Detection of the S39625 at the column exit is carried out by a UV detector at a wavelength of 385 nm. A standard curve for S39625 in acetonitrile was produced by reverse HPLC.

[3] = Solubility of the active ingredient molecule in water; format: physicochemical; conditions: free molecule, without micelles

## CCCC#CC#CCCC(=O)NCCCCC(C(=O)O)N(CC(=O)O)CC(=O)O (stereo not shown) [II-4]
[1]
  Critical micellar concentration: 0.082 mg/mL

## CC(=O)O[C@H]1C(=O)[C@@]2(C)[C@H]([C@H](OC(=O)c3ccccc3)[C@]3(O)C[C@H](OC(=O)[C@H](O)[C@@H](NC(=O)c4ccccc4)c4ccccc4)C(C)=C1C3(C)C)[C@]1(OC(C)=O)CO[C@@H]1C[C@@H]2O [Paclitaxel, paclitaxel, reference compound]
[2]; 50 °C, aqueous with cosolvent or surfactant or cyclodextrin, thermodynamic from solid
  solubility at 12 h: 4550 µg/mL (≈ 5.33 mM)
[2]
  Molar level of inclusion: 25%
  Level of inclusion by weight: 31%
  Number of molecules per micelle: 33
[2]; listed as paclitaxel
  Level of inclusion by weight: 33%

## c1cc2ccc3cccc4ccc(c1)c2c34 [Pyrene, pyrene, reference compound]
[2]
  Molar level of inclusion: 63%
  Level of inclusion by weight: 34%
  Number of molecules per micelle: 167

## CCC1(O)C(=O)Cc2c1cc1n(c2=O)Cc2c-1nc1cc3c(cc1c2C1CCC1)OCO3 (stereo not shown) [S 39625]
[3]
  Solubility of the molecule in water: 0.09 µg/mL
[2]
  Solubility in water: 9000 µg/mL (≈ 20.9 mM)
  Molar level of inclusion: 56%
  Level of inclusion by weight: 48%
  Number of molecules per micelle: 125

## CN(C)CC[C@H](CSc1ccccc1)Nc1ccc(S(=O)(=O)NC(=O)c2ccc3c(c2)CC[C@@H]2CN(Cc4ccccc4-c4ccc(Cl)cc4)CCN32)cc1[N+](=O)[O-] [S 44563]
[3]
  Solubility of the molecule in water: 2.00 µg/mL
[2]
  Solubility in water: 8300 µg/mL (≈ 9.89 mM)
  Molar level of inclusion: 36%
  Level of inclusion by weight: 45%
  Number of molecules per micelle: 56
